Measurements: patent US9723840B2 (SYNGENTA PARTICIPATIONS AG, priority 2013, dated 2017)

Tests used:
Assay type in all cases: in vivo
Abutilon theophrasti [1] = test: Post-emergence herbicidal activity, ABUTH; set-up: key: 5=total damage to plant; 0=no damage to plant; settings: 1000 g/Ha, post-emergence spray (8 days cultivation), evaluated after 13 days, scale 0-5
Protocol: (§1) Seeds of a variety of test species were sown in standard soil in pots. After 8 days cultivation (post-emergence) under controlled conditions in a glasshouse (at 24/16° C., day/night; 14 hours light; 65% humidity), the plants were sprayed with an aqueous spray solution derived from the formulation of the technical active ingredient in acetone/water (50:50) solution containing 0.5% Tween 20 (polyoxyethelyene sorbitan monolaurate, CAS RN 9005-64-5). The test plants were then grown in a glasshouse under controlled conditions (at 24/16° C., day/night; 14 hours light; 65% humidity) and watered twice daily. After 13 days, the test was evaluated (5=total damage to plant; 0=no damage to plant).

Abutilon theophrasti [2] = test: Pre-emergence herbicidal activity, ABUTH; set-up: key: 5=total damage to plant; 0=no damage to plant; settings: 1000 g/Ha, pre-emergence spray, evaluated after 13 days, scale 0-5
Protocol: as §1, with “After” for “After 8 days”, “for one day (pre-emergence)” for “(post-emergence)”

Amaranthus retroflexus [3] = test: Pre-emergence herbicidal activity, AMARE; set-up: key: 5=total damage to plant; 0=no damage to plant; settings: 1000 g/Ha, pre-emergence spray, evaluated after 13 days, scale 0-5
Protocol: as §1, with “After” for “After 8 days”, “for one day (pre-emergence)” for “(post-emergence)”

Setaria faberi [4] = test: Post-emergence herbicidal activity, SETFA; set-up: key: 5=total damage to plant; 0=no damage to plant; settings: 1000 g/Ha, post-emergence spray (8 days cultivation), evaluated after 13 days, scale 0-5
Protocol: as §1

Zea mays [5] = test: Pre-emergence herbicidal activity, ZEAMX; settings: 1000 g/Ha, pre-emergence spray, evaluated after 13 days, scale 0-5
Protocol: as §1, with “After” for “After 8 days”, “for one day (pre-emergence)” for “(post-emergence)”

Echinochloa crus-galli [6] = test: Pre-emergence herbicidal activity, ECHCG; set-up: key: 5=total damage to plant; 0=no damage to plant; settings: 1000 g/Ha, pre-emergence spray, evaluated after 13 days, scale 0-5
Protocol: as §1, with “After” for “After 8 days”, “for one day (pre-emergence)” for “(post-emergence)”

Zea mays [7] = test: Post-emergence herbicidal activity, ZEAMX; set-up: key: 5=total damage to plant; 0=no damage to plant; settings: 1000 g/Ha, post-emergence spray (8 days cultivation), evaluated after 13 days, scale 0-5
Protocol: as §1

Amaranthus retroflexus [8] = test: Post-emergence herbicidal activity, AMARE; set-up: key: 5=total damage to plant; 0=no damage to plant; settings: 1000 g/Ha, post-emergence spray (8 days cultivation), evaluated after 13 days, scale 0-5
Protocol: as §1

Setaria faberi [9] = test: Pre-emergence herbicidal activity, SETFA; set-up: key: 5=total damage to plant; 0=no damage to plant; settings: 1000 g/Ha, pre-emergence spray, evaluated after 13 days, scale 0-5
Protocol: as §1, with “After” for “After 8 days”, “for one day (pre-emergence)” for “(post-emergence)”

Echinochloa crus-galli [10] = test: Post-emergence herbicidal activity, ECHCG; set-up: key: 5=total damage to plant; 0=no damage to plant; settings: 1000 g/Ha, post-emergence spray (8 days cultivation), evaluated after 13 days, scale 0-5
Protocol: as §1

Alopecurus myosuroides [11] = test: Pre-emergence herbicidal activity, ALOMY; settings: 1000 g/Ha, pre-emergence spray, evaluated after 13 days, scale 0-5
Protocol: as §1, with “After” for “After 8 days”, “for one day (pre-emergence)” for “(post-emergence)”

Alopecurus myosuroides [12] = test: Post-emergence herbicidal activity, ALOMY; set-up: key: 5=total damage to plant; 0=no damage to plant; settings: 1000 g/Ha, post-emergence spray (8 days cultivation), evaluated after 13 days, scale 0-5
Protocol: as §1

| Compound | ABUTH damage score, application post-emergence (Abutilon theophrasti [1]) | ABUTH damage score, application pre-emergence (Abutilon theophrasti [2]) | AMARE damage score, application pre-emergence (Amaranthus retroflexus [3]) | SETFA damage score, application post-emergence (Setaria faberi [4]) | ZEAMX damage score, application pre-emergence (Zea mays [5]) | ECHCG damage score, application pre-emergence (Echinochloa crus-galli [6]) | ZEAMX damage score, application post-emergence (Zea mays [7]) | AMARE damage score, application post-emergence (Amaranthus retroflexus [8]) | SETFA damage score, application pre-emergence (Setaria faberi [9]) | ECHCG damage score, application post-emergence (Echinochloa crus-galli [10]) | ALOMY damage score, application pre-emergence (Alopecurus myosuroides [11]) | ALOMY damage score, application post-emergence (Alopecurus myosuroides [12]) |
| --- | --- | --- | --- | --- | --- | --- | --- | --- | --- | --- | --- | --- |
| CN1CC(O)N(c2ccc(C(=O)NC(C)(C)C)nn2)C1=O (centres unmarked) [Example A25] | 5 | 5 | 5 | 5 | 2 | 5 | 3 | 5 | 5 | 5 | – | – |
| CN1CC(O)N(c2cc(C(C)(C)F)cnn2)C1=O (centres unmarked) [Example A18] | 5 | 5 | 5 | 5 | 2 | 5 | 4 | 5 | 4 | 5 | – | – |
| CC1C(O)N(c2ccc(C(=O)NC(C)(C)C#N)nn2)C(=O)N1C (centres unmarked) [Example A13] | 5 | 5 | 5 | 5 | 3 | 4 | 1 | 5 | 4 | 3 | 4 | 4 |
| CC1C(O)N(c2cc(C(C)(C)F)c(Cl)nn2)C(=O)N1C (centres unmarked) [Example A2, 1-[6-chloro-5-(1-fluoro-1-methyl-ethyl)pyridazin-3-yl]-5-hydroxy-3,4-dimethyl-imidazolidin-2-one] | 5 | 5 | 5 | 5 | 3 | 4 | 5 | 5 | 5 | 5 | 4 | 4 |
| CC1C(O)N(c2cc(C(C)(C)F)c(-c3ccccc3)nn2)C(=O)N1C (centres unmarked) [Example A3] | 5 | 5 | 5 | 5 | 3 | 4 | 4 | 5 | 5 | 5 | 4 | 4 |
| CN1CC(O)N(c2cc(C(C)(F)F)cnn2)C1=O (centres unmarked) [Example A20] | 5 | 5 | 5 | 5 | 3 | 5 | 5 | 5 | 5 | 5 | – | – |
| CC1C(O)N(c2cc(C(F)(F)F)c(Cl)nn2)C(=O)N1C (centres unmarked) [Example A16] | 5 | 5 | 5 | 5 | 3 | 5 | 3 | 5 | 3 | 5 | – | – |
| CN1CC(O)N(c2cc(C(C)(C)F)c(Cl)nn2)C1=O (centres unmarked) [Example A1] | 5 | 5 | 5 | 5 | 4 | 5 | 5 | 5 | 5 | 5 | 4 | 5 |
| CN1CC(O)N(c2cc(C(C)(C)F)c(-c3ccccc3)nn2)C1=O (centres unmarked) [Example A4] | 5 | – | 5 | 5 | – | 5 | 5 | 5 | 5 | 5 | 4 | 5 |
| CON1C(=O)N(c2cc(C(C)(F)F)c(Cl)nn2)C(O)C1C (centres unmarked) [Example A12] | 5 | 5 | 5 | 5 | 3 | 5 | 3 | 5 | 5 | 5 | 3 | 5 |
| CCOC1C(O)N(c2cc(C(F)(F)F)c(Cl)nn2)C(=O)N1C (centres unmarked) [Example A23] | 5 | 5 | 5 | 5 | 2 | 5 | 3 | 5 | 5 | 5 | – | – |
| CN1CC(O)N(c2cc(C(F)(F)F)c(Cl)nn2)C1=O (centres unmarked) [Example A5, 3-[6-chloro-5-(trifluoromethyl)pyridazin-3-yl]-4-hydroxy-1-methyl-imidazolidin-2-one] | 5 | 5 | 5 | 5 | 2 | 4 | 4 | 5 | 5 | 5 | 4 | 4 |
| CN1C(=O)N(c2cc(C(F)(F)F)c(Cl)nn2)C(O)C1O (centres unmarked) [Example A22] | 5 | 5 | 5 | 5 | 1 | 2 | 3 | 5 | 4 | 5 | – | – |
| CCOC1C(O)N(c2cc(C(F)(F)F)cnn2)C(=O)N1C (centres unmarked) [Example A24] | – | 5 | 5 | – | 2 | 4 | – | – | 5 | 5 | – | – |
| CC1C(O)N(c2cc(C(F)(F)F)cnn2)C(=O)N1C (centres unmarked) [Example A21] | 5 | 5 | 5 | 5 | 3 | 5 | 5 | 5 | 5 | 5 | – | – |
